Results from patent US20230043948A1, “METHOD AND KIT FOR CELL GROWTH” (PRECISION CANCER TECHNOLOGIES INC ., priority 2019, published 2023).
“Also recorded” adds a separate entry of the source. Like-named read-outs stand apart in the source and are kept apart here.

Tests used:
[1] = test system: lung cancer cells overexpressing the c-Met receptor (PDX, LXFA-1647); assay: ex vivo drug testing of lung cancer cells overexpressing c-Met in a 3D hydrogel array / Matrigel; type: cell-based, human
Description: A PEG was used as a hydrogel precursor molecule for making a non self-degradable hydrogel. As a crosslinking agent, peptides containing at least two, preferably two cysteine moieties were used which varied in their amino acid sequence, in particular with respect to the presence or absence of a RGD adhesion motif and with respect to the presence or absence of a MMP degradation sequence. A further variation that was made to some hydrogels was the attachment of a bioactive ligand comprising a RGD adhesion motif or/and a ligand selected from the group consisting of natural laminins, recombinant laminin isoforms, and biofunctional fragments thereof. Examples of suitable recombinant laminin isoforms are laminin-111, laminin-211, laminin-332, laminin-411, laminin-511, or laminin-521. An array of hydrogels varying in the above preselected features was established, by the method described above.
The mechanical properties of the hydrogels were also varied (soft (50-1000 Pa), medium (1000-2000 Pa) or hard (2000-3000 Pa) gels).
For comparison, tests were also conducted in the undefined natural-derived matrix Matrigel®.
The respective drug was added to the culture media after 1 to 8 days of culture (1 to 8 days post cell encapsulation). The drug response was measured after 5 to 10 days post-drug addition. As a preferred culture medium, a medium was preselected that is characterized by the presence of FBS (serum) or Wnt agonists such as R-spondin. According to this example, a culture medium was used that was adapted from the medium described in Sachs et al. (The EMBO Journal e 100300|2019). The preferred culture medium comprised AdDMEM/F12 medium supplemented with glutamine, Noggin, EGF, fibroblast growth factor 7 and 10 [FGF7 and FGF10], HGF, R-spondin-conditioned medium, Primocin, penicillin/streptomycin, N-acetyl-L-cysteine, Nicotinamide, A83-01, SB202190 (p38-inhibitor), Y-27632 (rock inhibitor), B27 supplement and HEPES. Target expression (c-Met and Phospho c-Met) was detected by Western-blot in corresponding growth conditions.

[2] = test system: lung cancer cells overexpressing the EGFR receptor (PDX); assay: ex vivo drug testing of lung cancer cells overexpressing EGFR in 3D hydrogel; type: cell-based, human
[3] = test system: non-small cell lung cancer (NSCLC) model LXFA-1647; assay: in vivo treatment of patient-derived xenograft (PDX) NSCLC model; design: species or system human; conditions: PDX NSCLC model LXFA-1647
[4] = Matrigel as matrix (comparative example 1), FIG. 1c
[5] = conditions of example 1a: soft non self-degradable PEG hydrogel without any RGD motif (responder conditions), FIG. 1b
[6] = responder conditions of example 1a (hydrogel without any RGD motif), FIG. 1e

| SMILES | drug response (effect of treatment) [1, 4] | drug response (effect of treatment) [1, 5] | drug response (effect of treatment) [2] | drug response (effect of treatment) [2, 6] | drug response (effect of treatment) ([1]; hydrogel with 1 mM bioactive ligand comprising a RGD motif attached (non-responder conditions, example 1b)) | tumor growth in vivo [3] |
| --- | --- | --- | --- | --- | --- | --- |
| CC(=O)O[C@@]12CO[C@@H]1C[C@H](O)[C@@]1(C)C(=O)[C@H](O)C3=C(C)[C@@H](OC(=O)[C@H](O)[C@@H](NC(=O)OC(C)(C)C)c4ccccc4)C[C@@](O)([C@@H](OC(=O)c4ccccc4)[C@H]21)C3(C)C [Docetaxel] | an effect | clearly effective | – | – | – | – |
| C#Cc1cccc(Nc2ncnc3cc(OCCOC)c(OCCOC)cc23)c1 [Erlotinib] | – | – | clear effect | – | – | – |
| OCCn1cc(-c2cnc3nnn(Cc4ccc5ncccc5c4)c3n2)cn1 [PF-04217903] | did not respond; also recorded: No effect | clearly effective | – | no effect | resistant | induces tumor growth regression |
| CC(=O)O[C@H]1C(=O)[C@@]2(C)[C@H]([C@H](OC(=O)c3ccccc3)[C@]3(O)C[C@H](OC(=O)[C@H](O)[C@@H](NC(=O)c4ccccc4)c4ccccc4)C(C)=C1C3(C)C)[C@]1(OC(C)=O)CO[C@@H]1C[C@@H]2O [Paclitaxel] | – | – | – | clear effect | – | – |
